Results: patent US8778886B2, “Methods of making and using a cell penetrating peptide for enhanced delivery of nucleic acids, proteins, drugs, and adenovirus to tissues and cells, and compositions and kits” (Tufts University, priority 2007, dated 2014)

Experiments:
E. coli = assay: Microbicidal activity, colony count after plating; assay type: cell-based; settings: 2 hours at 37° C., plating on LB agar
Experimental: Lissamine conjugated POD (L-POD) and either heparan sulfate or chondroitan sulfate were incubated together at each of molar ratios of 1:3.33, 1:6.67, and 1:8 in water for 30 minutes at room temperature. The complex was diluted in DMEM+2% FBS and added to 0.2×]06 HER cells for 5 minutes at 37° C. Following incubation, cells were trypsinized and suspended in PBS for FACS analysis as described above. To measure microbicidal activity of C-POD, XL-1 Blue cells (Stratagene, La Jolla, Calif.) were grown to mid logarithmic phase (OD600=0.600) and washed twice in a solution of 10 mM Tris, pH 7.4 and 5 mM Glucose. The cells were resuspended in 10 mL of the same solution and […] of the suspension was incubated with C-POD in a final volume of 50 μL. The peptide/bacteria cell solution was rocked for 2 hours at 37° C. The peptide-treated bacteria was diluted 1:4500 with LB broth, plated on agar, and grown overnight at 37° C. The following day, the bacterial colonies on each plate were counted to quantify peptide-related reduction in growth.
Since endophthalmitis, an infection within the eye, is regularly a complicating factor in drug delivery to ocular tissues [Ho J et al. 2007 Int Opthalmol Clin 47: 199-208], C-POD was examined for potential microbicidal activities. E. coli cells grown to mid-log phase were incubated with either H20 only or C-POD suspended in H20 at concentrations ranging from 0.03 μM to 60 μM, and cell number was determined by plating samples on LB agar. […] Greater concentrations of C-POD completely eliminated bacterial growth.

HER cells [1] = assay: C-POD delivery of siRNA, silencing of GFP expression; assay type: cell-based, human; settings: pEGFP delivered by C-POD, no siRNA
Experimental: pCAGRFP was compacted with C-POD at a ratio of 400 peptide/plasmid molecules. Briefly, 2 μg of DNA and the appropriate concentration of peptide were each suspended in 15 μL of either 100 μM sodium phosphate or 5% dextrose buffer. The peptide and DNA solutions were mixed and incubated for 30 minutes at room temperature prior to addition to HER cells. After 48 hours, cells were resuspended in PBS for FACS analysis. For electron microscopy, peptide/DNA complexes were prepared as above. Particles were bound to glow-discharged copper grids, stained with urinyl acetate, and visualized on a CMIO Transmission Electron Microscope (Philips) using Digital Micrograph software (Gatan, Inc). C-POD was used to compact both pd2-EGFP-NI and GFP Duplex I at concentrations of 450 particles/DNA molecule and 25 particles/duplex molecule, respectively, in 100 mM sodium phosphate buffer using the same procedures described above. Compacted pd2-EGFP-NI DNA, 2 μg, and 70 pmoles of GFP Duplex I diluted in DMEM+2% FBS were added simultaneously to HER cells for 4 hours. Growing medium was then added to cells and the incubation continued for 44 additional hours. […] The amount of fluorescence resulting from the Qdot-peptide complex was determined using a fluorometer and an equivalent amount of unbound Strep-Qdot was added separately as control. […] Uptake of Qdots was determined by fluorescent microscopy as described above. […]

cornea = assay: Topical application of POD-GFP to cornea in vivo; design: species or system C57BL6/J mouse; settings: 40 μg, 45 minutes
Experimental: Subretinal and intravitreal injections of the fusion proteins were performed using techniques described in Cashman et al. [2006 Invest Opthalmol Vis Sci 47:3496-3504]. Briefly, 8.5 μg of POD-GFP or 6.6 μg of GFP protein was injected into the subretinal or intravitreal space respectively, of 6-8 week old C57BL/6J mice. Four independent injections were performed and yielded nearly identical results. Six hours post-injection, mice were sacrificed by CO2 inhalation and cervical dislocation. For topical delivery of the POD-GFPHis or GFP-His, C57BL/6J mice were anesthetized with xylazine/ketamine and 2 μl containing 40 μg of protein were dropped onto the […] surface. Forty-five minutes following administration, mice were sacrificed as above and eyes enucleated, washed twice in PBS, and fixed overnight in 4% paraformaldehyde. […]
To further examine localization of POD-GFP, anterior ocular tissues were dissected and the corneas were flat mounted or cross-sectioned and re-examined by fluorescence microscopy. […] In contrast, GFP-fluorescence was readily detected on both flat mounts and cross sections of corneas from mice that received topical application of POD-GFP (FIG. 12 panel B). […] No GFP-signal was detected in corneal cross-sections prepared from mice that received topical application of control GFP.

retina = assay: Subretinal / intravitreal injection of POD-GFP protein in vivo; design: species or system C57BL/6J mice
Experimental: Subretinal and intravitreal injections of the fusion proteins were performed using techniques described in Cashman et al. [2006 Invest Opthalmol Vis Sci 47:3496-3504]. Briefly, 8.5 μg of POD-GFP or 6.6 μg of GFP protein was injected into the subretinal or intravitreal space respectively, of 6-8 week old C57BL/6J mice. Four independent injections were performed and yielded nearly identical results. Six hours post-injection, mice were sacrificed by CO2 inhalation and cervical dislocation. For topical delivery of the POD-GFPHis or GFP-His, C57BL/6J mice were anesthetized with xylazine/ketamine and 2 μl containing 40 μg of protein were dropped onto the […] surface. Forty-five minutes following administration, mice were sacrificed as above and eyes enucleated, washed twice in PBS, and fixed overnight in 4% paraformaldehyde. Eyes were embedded in Optimal Cutting Temperature Compound (Sakura Finetek, Torrance, Calif.) and 14 μm sections were collected using a Microm 550 cryostat.
To determine the transduction properties of POD-GFP […] an amount of 8.5 μg of each of purified POD-GFP or control GFP protein was injected into the subretinal space, i.e., between the retinal pigment epithelium (RPE) and photoreceptors, of 6 week-old male C57BL61J mice. Eyes were harvested after 6 hours and frozen sections were examined by fluorescence microscopy.
Purified POD-GFP, 6.6 μg, or that amount of control GFP protein was injected into the intravitreal space, i.e. between the lens and neural retina of 6 week-old male C57BL6/J mice, and eyes were harvested after 6 hours and frozen sections examined by fluorescence microscopy. […] Unlike with subretinal injection, no POD-GFP signal was detectable in the outer nuclear layer or RPE beyond that of background auto-fluorescence and the overall number of GFP-positive cells was less than that achieved by subretinal injection.

skin = assay: Topical application of POD-GFP to shaved skin in vivo; design: species or system C57BL6/J mice; settings: 40 μg; for GFP-fluorescence in skin: 24 hours
Experimental: Adult mice were anesthetized as described above and the abdomen shaved to reveal a 2.25 cm^2 area of skin. A dose of 40 μg of protein was applied to the skin for 24 hours. Upon completion of the treatment, animals were sacrificed and the treated skin dissected and fixed overnight in 4% paraformaldehyde and transverse sections were obtained as described herein.
To extend these observations to other organ systems, the potential of transdermal delivery of POD-fusion protein was examined. POD-GFP (40 μg) or control OFF was topically applied to shaved skin of adult C57BL6/J mice. Animals were sacrificed 24 hours later and frozen sections of the treated region were examined by fluorescence microscopy.

HER cells [2] = assay: Toxicity during protein transduction, propidium iodide uptake; assay type: cell-based, human; settings: HER cells incubated with protein
Experimental: (§1) To evaluate cellular penetration of POD fusion proteins, HER cells were seeded on Lab Tek-II chamber slides and incubated with 10 μg of POD-GFP or GFP for two hours. Following fixation, cells were visualized by light and fluorescence microscopy using an Olympus BX51 microscope with differential interference contrast (DIC) and the appropriate fluorescence filters. Images were captured using a Retiga 2000R FAST camera and QCapture Pro 5.0 (QImaging, British Columbia, Canada). To quantitate protein uptake, 0.2×10^6 of either HER or A549 cells were incubated with 10 μg POD-GFP or GFP for 2 hours. Cells were washed with PBS, pelleted and resuspended in PBS for FACS analysis. Cell membrane integrity was evaluated by measuring the percentage of Propidium Iodide (1 μM) positive cells in the presence of fusion protein. FACS analysis of protein uptake and toxicity was performed using a FACSCAlibur (Becton Dickinson, Franklin. Lakes, N.J.) and results analyzed using CellQuest Pro (Becton Dickinson). 10,000 events were counted for each analysis, which was performed in triplicate and repeated at least once.
Extent of toxicity to cells during protein transduction was measured by uptake of propidium iodide (PI).

HER cells [3] = assay: POD-GFP protein transduction in vitro, GFP-positive cells by FACS and localization; assay type: cell-based, human; settings: for GFP-positive cells: HER, 10 μg protein, 2 hours
Experimental: as §1
HER and A549 cells were treated as above for subsequent addition of LysoTracker, ER Tracker (Molecular Probes, Carlsbad, Calif.), or DAPI, and were incubated for one hour. These reagents were removed and cells were fixed with formalin for imaging.
To determine the transduction capabilities of POD-GFP in vitro, each of approximately 0.2×10^6 human lung carcinoma epithelial cells (A549) or HER cells were incubated with 10 μg of each of purified recombinant POD-GFP or control GFP protein for 2 hours and the number of GFP-positive cells were counted by FACS. […] Similarly, 34.2±3.4% and 1.8±0.4%, respectively, of HER cells were GFP-positive when incubated with POD-GFP or GFP, respectively (FIG. 9 panel A).
In contrast to endogenous gene expression, POD-GFP in the Example herein appeared in the cytoplasm of HER cells in a punctate pattern (FIG. 9 panel B), similar to observations in examples above with L-POD peptide and similar to that of an endocytic mechanism of uptake.

[4] = test system: human embryonic retinoblast (HER) cells; assay: Localization of de novo synthesized POD-GFP after plasmid transfection; assay type: cell-based; settings: transfection with pPODGFPHis or pGFPHis
Experimental: Human embryonic retinoblast (HER) cells were cultured using previously described methods [Fallaux F J et al. 1996 Hum. Gene Ther. 7: 215-222]. Carcinoma human alveolar basal epithelial cells (A549, American Type Culture Collection, Manassas, Va.) were grown to 70-80% confluence in DMEM media supplemented with 10% fetal bovine serum (FBS). All cell culture procedures were performed in DMEM supplemented with 2% FBS. Transfection of plasmids was carried out using 2:1 μL Lipofectamine: μg plasmid in Opti-MEM media. Forty-eight hours post-transfection, the cells were fixed and stained with DAPI, 4′,6-diamidino-2-phenylindole.
Transfection of human embryonic retinoblast (HER) cells [Fallaux F J et al. 1996 Hum. […] Furthermore, POD-GFP appeared to concentrate in sub nuclear compartments (FIG. 7 panel B, arrowheads).

[5] = test system: human lung carcinoma epithelial cells (A549); assay: POD-GFP protein transduction in vitro, GFP-positive cells by FACS; assay type: cell-based; settings: A549, 10 μg protein, 2 hours
Experimental: as §1, with “once. […]” for “once.”

| Substance | concentration giving almost complete inhibition of bacterial growth (E. coli) [µM] | concentration giving significant inhibition of bacterial growth (E. coli) [µM] | GFP-positive cells (HER cells [1]) [%] | presence on outer surface of the eye (cornea) | detection in retina by fluorescence microscopy (retina; intravitreal, 6.6 μg, 6 hours) | detection in retina by fluorescence microscopy (retina; subretinal, 8.5 μg, 6 hours) | GFP-fluorescence in skin (skin) | PI-positive cells (HER cells [2]) [%] | GFP-positive cells (HER cells [3]) [%] | localization of expressed protein [4] | GFP-positive cells [5] [%] | binding to lens capsule (retina; intravitreal injection) | transduction of the ONL, share of the retinal surface (retina; subretinal, 8.5 μg, 6 hours) | duration of binding to mouse skin (skin) | cellular localization of exogenously added protein (HER cells [3]; HER cells) |
| --- | --- | --- | --- | --- | --- | --- | --- | --- | --- | --- | --- | --- | --- | --- | --- |
| CGGG(ARKKAAKA)4 (CGGGARKKAAKAARKKAAKAARKKAAKAARKKAAKA; The peptide was designed and synthesized) [C-POD] | 24.0 | 0.30 | 49.13±2.23 |  |  |  |  |  |  |  |  |  |  |  |  |
| GFP: His-tagged GFP control protein [reference compound] |  |  |  | washed away | not detected in retinal cells above background auto-fluorescence | barely discernible above background auto-fluorescence | Only minimal GFP-fluorescence | 3.2±2.7 | 1.8±0.4 | relatively diffuse cytoplasmic and nuclear localization | 1.4±0.4 |  |  |  |  |
| POD-GFP: His-tagged POD-GFP fusion protein |  |  |  | detected on most of the ocular surface | readily detected in ganglion cells | abundantly present in the outer nuclear layer | significantly GFP-positive | 2.8±3.8 | 34.2±3.4 | relatively weak cytoplasmic and intense nuclear localization | 35.3±0.9 | very strong affinity | up to 40% | at least 24 hours | colocalize in part with Lysotracker |
